{"source": "paper PMC11013143", "about": "“4-Chloroisocoumarins as Chlamydial Protease Inhibitors and Anti-Chlamydial Agents” (Molecules, 2024)", "key": {"[1]": {"molecular_target": "T1, Human Leukocyte Elastase (HLE) (Homo sapiens, UniProt P08246)", "T1 construct": "purchased Athens Research and Technology 16-15-051200", "T1 sequence (P08246 30-247 limits assumed)": "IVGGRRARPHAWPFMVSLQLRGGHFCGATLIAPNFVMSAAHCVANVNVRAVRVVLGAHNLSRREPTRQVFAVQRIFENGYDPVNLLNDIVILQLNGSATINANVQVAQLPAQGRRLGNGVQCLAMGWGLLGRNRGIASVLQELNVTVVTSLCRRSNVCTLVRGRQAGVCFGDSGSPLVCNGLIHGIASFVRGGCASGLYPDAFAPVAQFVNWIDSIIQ", "experiment": "HLE protease inhibition assay", "assay_type": "biochemical", "description": "Elastase was purchased from Athens Research and Technology (Cat No. 16-15-051200). Elastase (100 µg) was dissolved in Tris buffer (100 mM Tris, 20 mM CaCl2, pH 8.1, 3.14 mL), giving a concentration of 1.117 µM, and 25 µL was added to each well containing the respective inhibitor. The plate was incubated at 37 °C for 15 min.\nN-Suc-AAA-pNA (Sigma Aldrich, Bayswater, Australia, S4760, 100 µL, 1 mg/mL, […]) was added to each well, and the absorbance was monitored every six minutes at 405 nm. The rate of change of absorbance was used as a comparison to controls to determine the % inhibition of protein in Microsoft Excel^TM (v2402), and these values were exported to GraphPad Prism (v8.0.1) for IC50 calculation."}, "C. trachomatis": {"tested_on": "C. trachomatis", "experiment": "Chlamydia trachomatis growth inhibition assay in HEp-2 host cells", "assay_type": "cell-based", "details": "for statistical significance of anti-chlamydial activity: relative to solvent controls", "description": "The workflow for the evaluation of chlamydial growth inhibition is described in the supplementary information (Figure S6). Briefly, HEp-2 cells were seeded in a 96-well plate and grown for 24 h; they were then infected with a fixed quantity of C. trachomatis. The infection was propagated for 4 h, and then a mixture of test compound and cycloheximide was added and the plate was incubated for a further 26 h (30 h post infection). The cells were fixed with methanol and then stained with fluorescent antibodies to visualize chlamydial inclusions, and the growth was measured using inclusion counts relative to vehicle controls.\nHEp-2 cells were grown until confluent in a T-75 flask with DMEM (containing 10% FCS, gentamycin (0.05 mg/mL), streptomycin (0.1 mg/mL) and glutamine (Sigma-Aldrich Cat No. G7513, 4 mM); they were then harvested with trypsin, and the cell density was determined with a haemocytometer. Cells were diluted to 1 × 10^5 cells/mL, and 200 µL was dispensed to each well in a 96-well plate and then incubated for 24 h at 5% CO2 at 37 °C.\nThe supernatant was removed, and 100 µL of the respective chlamydia species in media (100,000 IFU/mL) was added, giving an MOI of 0.5. The plate was sealed and centrifuged at 500× g/28 °C for 30 min and then incubated for a further 3.5 h at 37 °C with 5% CO2. The supernatant was removed, and 100 µL of cycloheximide in DMEM (1 µg/mL) was added in addition to 100 µL of drug stock solution to each respective well with DMSO and media negative controls and also azithromycin positive control. The plate was incubated for a further 26 h.\nThe supernatant was removed, and wells were washed with PBS (2 × 150 µL) and then fixed in methanol for eight minutes. The methanol was removed and washed with additional PBS (2 × 150 µL) and stored at 4 °C with 100 µL PBS per well and then stained and analyzed using fluorescence microscopy, which is outlined below.\nCells in fixed plates were permeabilized with 0.5% Triton X-100 in PBS for 15 min and then blocked with 1% BSA in PBS for 45 min. Anti-HtrA polyclonal antibody (sera) (1:600) (in-house), anti-mouse tubulin (Sigma-Aldrich Cat no. T-5168, 1:3000) and DAPI (125 ng/mL) in PBS were added to each well (70 µL) and then gently shaken at room temperature while shielding it from light for 45 min. The primary antibodies were removed, and the wells were washed with PBS (4 × 150 µL). Secondary antibodies (goat anti-rabbit Alexafluor 488, Thermo Fisher Cat No. A-11008 and goat anti-mouse Alexafluor 568 (Thermo Fisher Cat No. A-11004)) in PBS (70 µL, 1:600 respectively) were added and the wells were gently shaken at room temperature while shielding them from light for 45 min. The antibodies were removed, and the wells were washed with PBS (5 × 150 µL); cells were then stored with PBS (100 µL per well) at 4 °C pending analysis.\nPlates were analyzed on an INcell Analyzer 2200 (Cytiva Life Sciences, Marlborough, MA, USA) using both laser autofocus (10%) and software autofocus modes, with ten random images per well covering a minimum of 80% of the well at 10x magnification. Non-morphologically affected inclusions were counted using a macro in ImageJ (v1.54f), and MIC was defined as being one two-fold dilution more concentrated than MICTP (where MICTP is defined as the lowest concentration to produce ≥90% morphologically abnormal inclusions) relative to solvent controls."}, "[2]": {"details": "62.5 µM, 30 h post infection, HEp-2 host cells"}}}
{"compound": "CCC(C)Oc1oc(=O)c2ccccc2c1Cl", "note": "(racemic) [Compound 2g, (±)-3-sec-Butoxy-4-chloroisocoumarin]", "values": [{"measurement": "IC50", "setting": "[1]; Table S1, variable slope four parameter fit, read-out: IC50 against HLE", "value": 1810, "unit": "nM"}, {"measurement": "Relative Potency against HLE", "setting": "[1]; [IC50 of JO146]/[IC50 test compound]", "value": 0.451}, {"measurement": "reduction of chlamydial growth", "setting": "C. trachomatis; [2]", "value": 49, "unit": "%"}]}
{"compound": "CCC(C)Oc1oc(=O)c2cc(N)ccc2c1Cl", "note": "(racemic) [Compound 6a, (±)-7-Amino-4-chloro-3-sec-butoxyisocoumarin]", "values": [{"measurement": "chlamydial inclusions affected", "setting": "C. trachomatis; [2]", "value": "≥ 90", "unit": "%"}, {"measurement": "statistical significance of anti-chlamydial activity", "setting": "C. trachomatis; 62.5 µM", "value": "statistically significant anti-chlamydial activity"}, {"measurement": "inhibition of C. trachomatis growth versus 90% threshold", "setting": "C. trachomatis; any concentration tested, 30 h post infection, dose-response", "value": "did not consistently show inhibition greater than the 90% threshold"}]}
{"compound": "CCC(C)Oc1oc(=O)c2cc(N(C)C)ccc2c1Cl", "note": "(racemic) [Compound 6b, (±)-7-(Dimethylamino)-3-sec-butoxy-4-chloroisocoumarin]", "values": [{"measurement": "chlamydial inclusions affected", "setting": "C. trachomatis; [2]", "value": "≥ 90", "unit": "%"}, {"measurement": "statistical significance of anti-chlamydial activity", "setting": "C. trachomatis; 62.5 µM", "value": "statistically significant anti-chlamydial activity"}, {"measurement": "inhibition at 31.25 µM", "setting": "C. trachomatis; Chlamydia trachomatis, HEp-2, concentrations ≥ 31.25 µM, 30 h post infection, dose-response", "value": "> 90", "unit": "%"}, {"measurement": "MIC", "setting": "C. trachomatis; Chlamydia trachomatis, MIC defined as twice the MICTP (>90% altered chlamydial morphology), read-out: MIC (minimum inhibitory concentration) against C. trachomatis", "value": 62.5, "unit": "µM"}]}
{"compound": "CCC(C)Oc1oc(=O)c2cc(NC(C)=O)ccc2c1Cl", "note": "(racemic) [Compound 6c, (±)-N-(4-Chloro-1-oxo-3-sec-butoxy-isochromen-7-yl)acetamide]", "values": [{"measurement": "anti-chlamydial activity against C. trachomatis", "setting": "C. trachomatis; [2]", "value": "did not significantly affect the efficacy of 2g"}]}
{"compound": "CCC(C)Oc1oc(=O)c2cc(NC(=O)C(F)(F)F)ccc2c1Cl", "note": "(racemic) [Compound 6d, (±)-N-(4-chloro-1-oxo-3-sec-butoxy-isochromen-7-yl)-2,2,2-trifluoroacetamide]", "values": [{"measurement": "anti-chlamydial activity against C. trachomatis", "setting": "C. trachomatis; [2]", "value": "comparable efficacy to the methoxy (6h) analogue"}, {"measurement": "statistical significance of anti-chlamydial activity", "setting": "C. trachomatis; 62.5 µM", "value": "statistically significant anti-chlamydial activity"}, {"measurement": "melting point", "value": "189 to 190", "unit": "°C"}]}
{"compound": "CCC(C)Oc1oc(=O)c2cc(I)ccc2c1Cl", "note": "(racemic) [Compound 6e, (±)-3-sec-Butoxy-4-chloro-7-iodoisocoumarin]", "values": [{"measurement": "anti-chlamydial activity against C. trachomatis", "setting": "C. trachomatis; [2]", "value": "did not significantly affect the efficacy of 2g"}, {"measurement": "statistical significance of anti-chlamydial activity", "setting": "C. trachomatis; 62.5 µM", "value": "statistically significant anti-chlamydial activity"}]}
{"compound": "CCC(C)Oc1oc(=O)c2cc(OC)ccc2c1Cl", "note": "(racemic) [Compound 6h, (±)-7-Methoxy-3-sec-butoxy-4-chloroisocoumarin]", "values": [{"measurement": "statistical significance of anti-chlamydial activity", "setting": "C. trachomatis; 62.5 µM", "value": "statistically significant anti-chlamydial activity"}]}
